Like-named read-outs stand apart in the source and are kept apart here.
Assays:
[1] = system: L. infantum reference strain (MHOM/BR/2002/LPC-RPV); test: Growth inhibition of L. infantum reference strain promastigotes (resazurin); conditions: for Selectivity Index MΦ/Reference: EC50 J774.1 macrophages versus L. infantum reference strain; for Selectivity Index MΦ/Lin–Ref: EC50 mammalian cell line/EC50 L. infantum reference strain
[2] = system: L. infantum veterinary isolate (MCAN_UY_2015_gPL8); test: Growth inhibition of L. infantum veterinary isolate promastigotes (resazurin); conditions: for Selectivity Index MΦ/Veterinary: EC50 J774.1 macrophages versus L. infantum veterinary isolate; for Selectivity Index MΦ/Lin–Vet: EC50 mammalian cell line/EC50 L. infantum veterinary isolate
T. b. brucei = conditions: ref Veale and Hoppe, 2018; read-out: EC50 T. b. brucei; cited from earlier work
[3] = Nonspecific cytotoxicity in murine macrophages (MTT); conditions: mouse, J774.1 murine macrophages
Experimental: (§1) Cell viability was then assessed using the 3-(4,5-dimethylthiazol-2-yl)-2,5-diphenyltetrazolium bromide (MTT) colorimetric assay [1]. […] All assays were performed in triplicate [35].

T. brucei = test: Growth inhibition of T. brucei bloodstream form trypomastigotes (resazurin); type: cell-based, Trypanosoma brucei brucei; conditions: for EC50: read-out: EC50 ± SD T. brucei
Experimental: Compounds were dissolved in dimethylsulfoxide (DMSO).

T. cruzi = conditions: cited from earlier work
L. amazonensis [4] = test: Growth inhibition of L. amazonensis promastigotes (resazurin); conditions: for Selectivity Index MΦ/L. amaz: EC50 mammalian cell line/EC50 L. amazonensis; for EC50: read-out: EC50 ± SD L. amaz
L. braziliensis = conditions: read-out: EC50 ± SD L. brazils, cited from earlier work
[5] = system: J774.1 murine macrophages; test: Nonspecific cytotoxicity in murine macrophages (MTT)
Experimental: as §1

[6] = mice, up and down test, cited from earlier work
L. amazonensis [7] = test: Murine model of cutaneous Leishmaniasis; conditions: BALB/c mice, oral, when treatment begins (Figure 2C)
Experimental: For the in vivo model of cutaneous disease, 1 × 10^7 amastigote parasites of L. amazonensis PH8 were inoculated in the upper part of the left paw of the mice. […] The mice were sacrificed 30 days post-infection. The antiparasitic effect was evaluated by two methods: the weekly evolution of the diameter of the infected paw throughout the experiment (Figure 2C) and the quantification of the parasite load in the infected area at the end of the experiment (Figure 2A).
Golden hamsters (Mesocritus auratus) were used to maintain L. amazonensis infections with the parasites passage every 6 to 8 weeks. BALB/c mice (female and male) supplied by the IFFA-CREDO, Lyon, France, and bred at the Instituto de Investigaciones en Ciencias de la Salud, Asuncion, Paraguay, were inoculated in the right hind footpad with 2 × 10^6 L. amazonensis amastigotes in 100 µL PBS obtained from donor hamsters. Disease progression was monitored by the measurement of lesion diameters for 7 to 12 weeks. […] Two days before the administration of the drug, the mice were randomly divided into groups of eight. […] The animals were euthanized two weeks after cessation of treatments to assess parasitological loads in the infected footpad. […] Following incubation at 27 °C for seven days, cultures were examined with an inverted microscope (Olympus, Tokyo, Japan) at a magnification of ×400. The number of parasites per gram in the lesion was calculated by the following equation: Parasite burden = geometric mean of the number of parasites in each duplicate/(number of microscope field counted × weight of lesion × (25,000) hemocytometer correction factor) [37]. […] Comparisons of parasite suppression in the infected footpads of the untreated and drug-treated groups were performed by Student’s t-test. One-way ANOVA (as a non-parametric statistical test) was also used on ranks.

L. infantum amastigote = test: Single dose study in the amastigote form of L. infantum; type: cell-based; conditions: Leishmania infantum, single dose 10 µM
[8] = set-up: method as in PMID 24749923, PMID 26492824, PMID 25512408; conditions: ref [13],[14],[15]; cited from earlier work
[9] = cited from earlier work
fibroblasts (NCTC929) = test: Cytotoxicity in fibroblasts; type: cell-based
Source text: Table 5 Cytotoxicity and selectivity index of reference drugs and selected molecules. | column: EC50 ± SD (µM) ^a / Fibroblasts

[10] = Acute oral toxicity (up and down test); conditions: mice
[11] = cited from earlier work; remark: listed apart in the source
[12] = Liver fraction stability (cytosolic and microsomal fraction of rat hepatocytes, TLC); type: in vitro ADME; conditions: rat hepatocyte cytosolic and microsomal fractions, 37 °C
Experimental: For the determination of the stability in the different fractions, (cytosolic and microsomal of rat hepatocytes) the different proteins present in them were used. The fractions were prepared according to the previously reported protocol. […] The final concentration of the molecules in the aqueous medium was 400 µM and prepared from a stock in DMSO of 40 mM. The solutions were homogenized and incubated at 37 °C at 10 min, 30 min, 1 h, 2 h, 3 h and 4 h. (by TLC). For this, it was incubated at 37 °C in a volume of 1 mL: 2.5 µL of 30 mM Magnesium Chloride (MgCl); 2.5 µL of 40 mM Nicotinamide Adenosine Dinucleotide Phosphate (NADP+); 5 µL of 350 mM Glucose 6- Phosphate (Glu6P); 5 µL of Glucose 6- phosphate dehydrogenase (Glu6PD) 50 U/mL, 5 µL of the stock of 40 mM compounds and the volume of the Phosphate Buffer (pH = 7) must be such that cytosolic (CF) and microsomal (MF) fraction FC and FM present a final protein concentration of 0.1 mg/mL. After that, the stability of compounds 796 and 1019 in the cytosolic (FCF) and microsomal (FMF) fraction of rat hepatocytes was evaluated at different times (1–4 h). Thin-layer chromatography of ethyl acetate extracts was conducted to evaluate the presence of decomposition products. The mobile phase used for these TLCs was n-hexane: ethyl acetate (7: 3).

[13] = mice, 796 150 mg/kg oral, Cyclophosphamide intraperitoneal positive control
Source text: At least two slides of the cell suspension per animal were made. The air-dried slides were stained with Giemsa stain (5% in phosphate buffer, pH 7.4) and examined at 1000× magnification. Small round or oval bodies, the size of which ranged from about 1/5 to 1/20 of the diameter of a polychromatic erythrocyte (PCE), were counted as micronuclei. A total of 1000 PCEs were scored per animal by the same observer for determining the frequencies of micronucleated polychromatic erythrocytes (MNPCEs). […] For statistical analysis, the homogeneity of variances of data was tested by the analysis of variance (ANOVA) test (p < 0.05) using the EpiInfo (3.5.1) software.

[14] = set-up: method as in data provided by the DNDi program, non-published; conditions: ref data provided by the DNDi program, non-published; cited from earlier work
[15] = Leishmania infantum, read-out: EC50 L. infantum Reference
[16] = Leishmania infantum, read-out: EC50 L. infantum Veterinary
[17] = Table 4, curcuminoids, ref [14], read-out: EC50 ± SD T. cruzi
[18] = Leishmania infantum, read-out: EC50 ± SD Lin–Ref
[19] = Table 4, curcuminoids, ref [14]
[20] = Mus musculus, J774.1, read-out: EC50 ± SD MΦ
[21] = read-out: EC50 ± SD Lin–Ref, Table 4, curcuminoids, L. infantum reference strain
[22] = Trypanosoma brucei, Table 3, thiazolidene hydrazines
[23] = Leishmania infantum, read-out: EC50 ± SD Lin–Vet
[24] = Table 3, thiazolidene hydrazines, ref [13],[16],[19],[23],[25]
[25] = Table 3, thiazolidene hydrazines, ref [13],[16],[19],[23],[25], read-out: EC50 ± SD T. cruzi
[26] = read-out: EC50 ± SD Fibroblasts
[27] = read-out: EC50 ± SD Lin–Vet, Table 4, curcuminoids, L. infantum veterinary isolate
[28] = read-out: EC50 ± SD MΦ, murine macrophages, footnote: J774.1 macrophages or differentiated THP-1 monocytes
[29] = read-out: EC50 ± SD Lin–Ref, Table 3, thiazolidene hydrazines, L. infantum reference strain
[30] = Table 3, thiazolidene hydrazines

CS(=O)(=O)c1ccc(C(=O)N(C[C@H]2CCCO2)c2nc3ccccc3s2)cc1[N+](=O)[O-] [MMV688761, N-(1,3-Benzothiazol-2-yl)-4-methylsulfonyl-3-nitro-N-[[(2R)-oxolan-2-yl]methyl]benzamide]
Selectivity Index MΦ/Reference [1]: >10
EC50 [1, 15]: 4.9 ± 0.1 µM
Selectivity Index MΦ/Veterinary [2]: >13
EC50 [2, 16]: 3.9 ± 0.3 µM
EC50 (T. b. brucei): 11 µM
EC50 at 48 h [3]: > 50 µM

O=C(C=CC=Cc1ccco1)C=CC=Cc1cccs1 [Compound 1414]
EC50 (T. brucei; Table 4, curcuminoids): 16 µM
EC50 (T. cruzi; [17]): 12 ± 1 µM

COc1cc(/C=C/C(=O)CC(=O)/C=C/c2ccc(O)c(OC)c2)ccc1O [Curcumin, reference compound]
EC50 (T. brucei; Trypanosoma brucei, Table 4, curcuminoids): 8 ± 1 µM
Selectivity Index MΦ/L. amaz (L. amazonensis [4]): 2
Selectivity Index MΦ/Lin–Ref [1]: 2
EC50 [1, 18]: 5 ± 1 µM
EC50 (L. braziliensis; [19]): 6 ± 1 µM
EC50 [5, 20]: 10 ± 2 µM
EC50 (T. cruzi; [17]): 6 ± 1 µM

O=C(C=CC=Cc1ccccc1)C=CC=Cc1ccccc1 [Compound 797]
EC50 (T. cruzi; [17]): 11 ± 2 µM

O=C1C(=CC=Cc2cccs2)CCC1=CC=Cc1cccs1 [Compound 1018]
EC50 (T. brucei; Table 4, curcuminoids): 15 ± 2 µM
EC50 [1, 21]: < 0.3 µM
EC50 (L. braziliensis; [19]): 11 ± 3 µM
EC50 (T. cruzi; [17]): 0.04 ± 0.01 µM

C=CCn1c(-c2ccc(Cl)cc2)cs\c1=N/N=C/C=C/c1ccco1 [Compound 266]
acute toxicity LD50 ([6]; previously evaluated, ref [13],[16]): > 2000 mg/kg of weight
Acute oral toxicity LD50 ([6]; ref [13],[14],[15]): LD50 > 2000 mg/kg in mice
EC50 (T. brucei; [22]): 5 ± 1 µM
diameter of the paw (L. amazonensis [7]): begins to decrease
inhibition at 10 µM (L. infantum amastigote): 69%
Stability in vitro (microsomal, plasma, other solutions) [8]: high
Selectivity Index MΦ/L. amaz (L. amazonensis [4]): 9
EC50 (L. amazonensis [4]; Leishmania amazonensis): 7 ± 1 µM
Selectivity Index MΦ/Lin–Ref [1]: 30
EC50 [1, 18]: 2 ± 0.2 µM
micronucleus test, genotoxicity ([9]; previous works, ref [13],[16]): not genotoxic
Micronucleus test in mice (Genotoxicity) ([9]; ref [13],[14],[15]): no
EC50 (fibroblasts (NCTC929); NCTC-929, read-out: EC50 ± SD Fibroblasts): 405 ± 10 µM
Selectivity Index MΦ/Lin–Vet [2]: 7
EC50 [2, 23]: 9 ± 1 µM
EC50 (L. braziliensis; [24]): 20 ± 2 µM
EC50 [5, 20]: 60 ± 6 µM
EC50 (T. cruzi; [25]): 1.6 ± 0.5 µM
EC50 (T. cruzi; amastigotes, multiple strains, ref [13],[14],[15], read-out: EC50 in vitro anti-T. cruzi, amastigotes): > 0.25 µM
survival in the acute toxicity model in vivo [10]: 100%
AMES test, mutagenic capacity ([11]; previous works, ref [13],[16]): negative
Ames Test (mutagenicity) ([11]; ref [13],[14],[15]): no

O=C1C(=CC=Cc2ccccc2)CCCC1=CC=Cc1ccccc1 [Compound 800]
EC50 (T. brucei; Table 4, curcuminoids): 15 ± 1 µM
EC50 (T. cruzi; [17]): 14 µM

O=C(NN=CC=Cc1ccco1)c1cnn(-c2ccccc2)c1 [Compound 1366]
EC50 (T. cruzi; [25]): 12 ± 2 µM

O=C(C=Cc1ccco1)C=Cc1ccco1 [Compound 795]
metabolic stability: time compound detected / degraded [12]: < 1 h
EC50 (T. brucei; Table 4, curcuminoids): 1.8 ± 0.5 µM
EC50 (L. amazonensis [4]; Table 4, curcuminoids): 10 ± 6 µM
EC50 [1, 21]: 5 ± 1 µM
EC50 (fibroblasts (NCTC929); [26]): 114 ± 6 µM
EC50 [2, 27]: 10 ± 2 µM
EC50 (L. braziliensis; [19]): 6 ± 2 µM
EC50 [5, 28]: 115 ± 2 µM
EC50 (T. cruzi; [17]): 24 ± 2 µM

O=C1C(=CC=Cc2ccco2)CCC1=CC=Cc1ccco1 [Compound 1223]
trypanosomicidal effect on T. brucei (T. brucei): no trypanosomicidal effect
EC50 (L. amazonensis [4]; Table 4, curcuminoids): 18 ± 4 µM
EC50 [1, 21]: < 0.3 µM
growth inhibitory / trypanosomicidal effect on the L. infantum canine-derived isolate [2]: no trypanosomicidal effect
EC50 (L. braziliensis; [19]): 16 ± 4 µM
EC50 (T. cruzi; [17]): 5 ± 2 µM

CC(C=CC(=O)C=CC(C)=Cc1ccco1)=Cc1ccco1 [Compound 809]
trypanosomicidal effect on T. brucei (T. brucei): no trypanosomicidal effect
EC50 (L. amazonensis [4]; Table 4, curcuminoids): 16 ± 2 µM
EC50 [1, 21]: 3 ± 1 µM
EC50 (fibroblasts (NCTC929); [26]): 543 ± 6 µM
growth inhibitory / trypanosomicidal effect on the L. infantum canine-derived isolate [2]: no trypanosomicidal effect
EC50 (L. braziliensis; [19]): 6 ± 1 µM
EC50 [5, 28]: 33 ± 8 µM
EC50 (T. cruzi; [17]): 8 ± 2 µM

Cc1ccc(S(=O)(=O)NN=CC=Cc2ccco2)cc1 [Compound 1369]
EC50 [1, 29]: 8 ± 2 µM
EC50 (T. cruzi; [25]): 15 ± 5 µM

O=C(C=CC=Cc1cccs1)C=CC=Cc1cccs1 [Compound 798]
EC50 [1, 21]: 3 ± 0.5 µM
EC50 (L. braziliensis; [19]): 19 ± 5 µM
EC50 (T. cruzi; [17]): 13 ± 1 µM

C=CCn1c(-c2ccc(Cl)cc2)cs\c1=N/N=C/C(C)=C/c1ccco1 [Compound 873]
EC50 (T. brucei; [22]): 14 ± 3 µM
EC50 (T. cruzi; [25]): 0.09 ± 0.02 µM

Clc1ccc(-c2csc(N/N=C/C=C/c3ccco3)n2)cc1 [Compound 901]
EC50 (T. brucei; [22]): 5 ± 1 µM
EC50 (T. cruzi; [25]): 1.2 ± 0.3 µM

O=C1C(=Cc2ccccc2)CCCC1=Cc1ccccc1 [Compound 799]
metabolic stability: time compound detected / degraded [12]: < 1 h
EC50 (T. brucei; Table 4, curcuminoids): 1.7 ± 0.5 µM
EC50 (L. amazonensis [4]; Table 4, curcuminoids): 5 ± 1 µM
EC50 [1, 21]: < 0.3 µM
EC50 [2, 27]: 12 ± 3 µM
EC50 (L. braziliensis; [19]): 4.2 ± 0.9 µM
EC50 [5, 28]: 115 ± 8 µM
EC50 (T. cruzi; [17]): 5 ± 1 µM

C=CCn1c(-c2ccc(Cl)cc2)csc1=NN=Cc1ccsc1 [Compound 877]
EC50 (T. brucei; [30]): 10 ± 1 µM
EC50 (T. cruzi; [25]): 15 ± 3 µM

C=CCNC(=S)NN=CC=Cc1ccc(C)o1 [Compound 263]
EC50 [1, 29]: < 0.3 µM
EC50 (T. cruzi; [25]): 5 ± 1 µM

O=P1(N(CCCl)CCCl)NCCCO1 (stereo not drawn) [Cyclophosphamide, reference compound]
Media Mn/Mouse ± SD [13]: 36 ± 2
Number EPMn (total polychromatic micronucleated erythrocytes in the 5 assays) ([13]; 5000 EPC observed): 180

CNc1nnc(Sc2cnn(-c3ccccc3)c(=O)c2Cl)s1 [MMV688763, 4-Chloro-5-{[5-(methylamino)-1,3,4-thiadiazol-2-yl]sulfanyl}-2-phenyl-2,3-dihydropyridazin-3-one]
Selectivity Index MΦ/Reference [1]: >24
EC50 [1, 15]: 2.1 ± 0.2 µM
Selectivity Index MΦ/Veterinary [2]: >56
EC50 [2, 16]: 0.9 ± 0.1 µM
pharmacokinetics [14]: pharmacokinetic problems
EC50 at 48 h [3]: > 50 µM

O=C(C=CC=Cc1ccco1)C=CC=Cc1ccco1 [Compound 793]
EC50 (T. brucei; Table 4, curcuminoids): 17 ± 2 µM
EC50 [1, 21]: < 0.3 µM
EC50 (T. cruzi; [17]): 5 ± 0.7 µM

O=C(C=Cc1ccsc1)C=Cc1ccsc1 [Compound 1387]
EC50 (T. brucei; Table 4, curcuminoids): 0.7 ± 0.1 µM
EC50 (T. cruzi; [17]): 16 ± 2 µM

CC1CS(=O)(=O)CCN1/N=C/c1ccc([N+](=O)[O-])o1 (stereo not drawn) [Nifurtimox, reference compound]
Selectivity Index MΦ/L. amaz (L. amazonensis [4]): 33
Selectivity Index MΦ/Lin–Ref [1]: 33
EC50 [1, 18]: 6 ± 1 µM
Selectivity Index MΦ/Lin–Vet [2]: 20
EC50 [2, 23]: 10 ± 2 µM
EC50 (L. braziliensis; [24]): 6 ± 2 µM
EC50 [5, 20]: 200 ± 9 µM
EC50 (T. cruzi; [25]): 7 ± 2 µM

O=C1C(=CC=Cc2cccs2)CCCC1=CC=Cc1cccs1 [Compound 1245]
EC50 (T. brucei; Table 4, curcuminoids): 16 ± 3 µM
EC50 [1, 21]: < 0.3 µM
EC50 (L. braziliensis; [19]): 16 ± 1 µM
EC50 (T. cruzi; [17]): 0.6 ± 0.2 µM

C=CCNC(=S)NN=CC(C)=Cc1ccco1 [Compound 909]
EC50 (T. brucei; [30]): 19 ± 1 µM
EC50 [1, 29]: 10 µM
EC50 (T. cruzi; [25]): 6 ± 1 µM

Reference: publication PMC8308625, “Preclinical Studies in Anti-Trypanosomatidae Drug Development” (Pharmaceuticals, 2021)
